In paper PMC9027131, “Dual PI3K/Akt Inhibitors Bearing Coumarin-Thiazolidine Pharmacophores as Potential Apoptosis Inducers in MCF-7 Cells” (Pharmaceuticals, 2022):

Columns and labels:
PI3K-α = target: T1, PI3K-α (Homo sapiens, UniProt P42336); test: PI3Kα (p110α/p85) enzyme inhibition assay kit; format: biochemical; conditions: means ± sd, n = 3; read-out: IC50 (µM) PI3K-α Isoform
T1 construct: purchased BPS Bioscience, Inc 79781
Excerpt: (§1) Accumulating evidence highlighted that PI3K signaling pathway upregulation is highly implicated in breast cancer development and disease progression as well as resistance to hormones and cytotoxic therapy. Therefore, it is essential to elucidate the effect of the novel compound, VIIb, on the PI3K/Akt signaling pathway by using in vitro PI3K class 1A enzyme inhibition assay conducted on PI3K-α and PI3K-γ isoforms as well as an Akt-1 enzyme inhibition assay. […] Furthermore, targeting the PI3K-γ isoform in breast cancer could contribute to enhancing the anti-tumor immunity.
(§2) The in vitro inhibition of PI3K and Akt kinase activities by VIIb was assessed using a PI3Kα (p110α/p85) assay kit (Catalog #79781; BPS Bioscience, Inc, San Diego, CA, USA), PI3Kγ (p110γ/PIK3R5) assay kit (Catalog #79803; BPS Bioscience, Inc, San Diego, CA, USA), and Akt Kinase Activity assay kit (ab139436; Abcam, Cambridge, UK) following the manufacturer’s instructions as described previously. The results were expressed as IC50 values using dose–response curves and linear regression equations.

PI3K-γ = target: T2, PI3K-γ (Homo sapiens, UniProt P48736); test: PI3Kγ (p110γ/PIK3R5) enzyme inhibition assay kit; format: biochemical; conditions: means ± sd, n = 3; read-out: IC50 (µM) PI3K-γ Isoform
T2 construct: purchased BPS Bioscience, Inc 79803
Excerpt: as §1, §2

Akt-1 = target: T3, Akt-1 (Homo sapiens, UniProt P31749); test: Akt Kinase Activity assay kit; format: biochemical; conditions: means ± sd, n = 3; read-out: IC50 (µM) Akt-1 Isoform
T3 construct: purchased Abcam ab139436
Excerpt: as §1
as §2, with “equations. LY294002 compound was taken as the reference compound. The values were means ± sd; n = 3.” for “equations.”

MCF-7 cells [1] = test: Cell cycle analysis by flow cytometry (propidium iodide); format: cell-based, human; conditions: MCF-7, treated at IC50, 48 h
Description: VIIb-treated cells were subjected to cell cycle phase distribution analysis as well as apoptosis rates determination by flow cytometric analysis in MCF-7 cells, as reported.
Control and VIIb-treated (IC50 µM, 48 h) MCF-7 cells were harvested and then subjected to cell cycle analysis by flow cytometry.
(§3) Cell cycle analysis and apoptosis rates following VIIb treatment were investigated using a Propidium Iodide Flow Cytometry Kit (ab139418; Abcam, Cambridge, UK) and Annexin V-FITC apoptosis kit (Catalog: K101-25; BioVision Research Products, San Francisco, CA, USA), respectively, following the manufacturer’s instructions as stated by a previous study.

MCF-7 cells [2] = test: Annexin V-FITC/PI apoptosis assay by flow cytometry; format: cell-based, human
Excerpt: Remarkably, clinical oncology aims at developing novel targeted cancer therapies that could induce apoptosis in neoplastic cells to enhance their eradication. Since loss of apoptosis is closely related to cancer cell survival and abnormal growth, induction of apoptotic signaling pathways is a crucial mechanism in targeted cancer therapy. To further explore the link between apoptosis rates and VIIb treatment, the pro-apoptotic activity of this novel compound was investigated by flow cytometry using both Annexin V (V) and propidium iodide (PI) dyes. A distinctive feature of early apoptosis is phosphatidylserine transfer toward the cellular surface. Thus, phosphatidylserine can be detected by fluorochrome-tagged anticoagulant protein V. Therefore, the viable cells remained unstained (V^−/PI^−).
Control untreated and MCF-7 cells treated with compound VIIb at its IC50 (µM) for 48 h were subjected to apoptotic analysis using Annexin V (V) and propidium iodide (PI) fluorescent dyes.
as §3

Cyclin D1, p-PI3K, p-Akt = test: Western blot in MCF-7 cells; format: cell-based, human; conditions: MCF-7, IC50, 48 h, vs control untreated cells
Excerpt: Cyclin D1 activity is essential for the G1 to S phase transition. Moreover, the PI3K/Akt axis is crucial for cell growth and apoptosis. The effects of VIIb on Cyclin D1 and the PI3K/Akt pathway in MCF-7 cells was investigated adopting reported procedures. […] Herein, Western blot results confirmed our previous findings, highlighting the ability of the novel compound, VIIb, to inhibit the PI3K/Akt signaling pathway. […] Cyclin D1 is a proto-oncogene and a major regulator of cell cycle progression. In addition, Cyclin D1 overexpression has been linked to both breast tumorigenesis and tumor progression as well as to the development of endocrine resistance in breast cancer cells.
Whole-cell protein lysates obtained from both control as well as VIIb-treated (IC50 (µM), for 48 h) MCF-7 cells were resolved by SDS-PAGE, and then immunoblotting was conducted with antibodies against cyclin D, p-Akt, and p-PI3K compared to the housekeeping protein β-Actin.
Western blot analysis was conducted using the following primary antibodies: anti-p-Akt (1:5000; ab81283), anti-Cyclin D1 (1:1000; ab226977), anti-p-PI3K (1:1000; ab278545), and anti-beta-actin (1:1000; ab8227). Firstly, VIIb-treated and untreated cells were rinsed with PBS, and then cold lysis buffer was added to induce cell lysis. After centrifugation, the supernatants were collected, and harvested proteins were quantified by Bradford assay and then resolved on SDS-PAGE followed by electroblotting onto polyvinylidene fluoride membranes. Later, membrane blocking was conducted using 5% skimmed milk in 0.1% Tween-20 in PBS (PBST). Then membranes were incubated with the aforementioned primary antibodies at 4 °C. Following 12-h incubation, the membranes were soaked in PBST thrice followed by 1-h incubation with appropriate secondary antibodies. Antibodies were supplied from Abcam (Cambridge, UK). The signals were visualized with a chemiluminescence ECL kit (Perkin Elmer, Waltham, MA, USA) following the manufacturer’s instructions, and images were obtained using a Biorad Imager.

[3] = MCF-7, with respect to control cells

T3 sequence (P31749 whole entry, species assumed, canonical isoform): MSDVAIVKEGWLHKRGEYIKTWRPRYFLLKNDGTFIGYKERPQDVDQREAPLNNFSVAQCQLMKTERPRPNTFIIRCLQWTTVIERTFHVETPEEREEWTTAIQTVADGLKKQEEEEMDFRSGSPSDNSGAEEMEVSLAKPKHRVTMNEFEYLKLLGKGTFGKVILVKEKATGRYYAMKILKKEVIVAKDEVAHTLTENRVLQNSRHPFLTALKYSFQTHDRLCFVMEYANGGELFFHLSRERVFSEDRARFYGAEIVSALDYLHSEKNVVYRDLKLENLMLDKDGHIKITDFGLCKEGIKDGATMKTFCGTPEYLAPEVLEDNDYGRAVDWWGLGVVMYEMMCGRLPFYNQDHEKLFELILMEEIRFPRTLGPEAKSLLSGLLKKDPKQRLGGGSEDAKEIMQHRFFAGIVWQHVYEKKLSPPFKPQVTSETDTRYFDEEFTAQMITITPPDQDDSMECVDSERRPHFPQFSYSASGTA
T1 sequence (P42336 whole entry, canonical isoform): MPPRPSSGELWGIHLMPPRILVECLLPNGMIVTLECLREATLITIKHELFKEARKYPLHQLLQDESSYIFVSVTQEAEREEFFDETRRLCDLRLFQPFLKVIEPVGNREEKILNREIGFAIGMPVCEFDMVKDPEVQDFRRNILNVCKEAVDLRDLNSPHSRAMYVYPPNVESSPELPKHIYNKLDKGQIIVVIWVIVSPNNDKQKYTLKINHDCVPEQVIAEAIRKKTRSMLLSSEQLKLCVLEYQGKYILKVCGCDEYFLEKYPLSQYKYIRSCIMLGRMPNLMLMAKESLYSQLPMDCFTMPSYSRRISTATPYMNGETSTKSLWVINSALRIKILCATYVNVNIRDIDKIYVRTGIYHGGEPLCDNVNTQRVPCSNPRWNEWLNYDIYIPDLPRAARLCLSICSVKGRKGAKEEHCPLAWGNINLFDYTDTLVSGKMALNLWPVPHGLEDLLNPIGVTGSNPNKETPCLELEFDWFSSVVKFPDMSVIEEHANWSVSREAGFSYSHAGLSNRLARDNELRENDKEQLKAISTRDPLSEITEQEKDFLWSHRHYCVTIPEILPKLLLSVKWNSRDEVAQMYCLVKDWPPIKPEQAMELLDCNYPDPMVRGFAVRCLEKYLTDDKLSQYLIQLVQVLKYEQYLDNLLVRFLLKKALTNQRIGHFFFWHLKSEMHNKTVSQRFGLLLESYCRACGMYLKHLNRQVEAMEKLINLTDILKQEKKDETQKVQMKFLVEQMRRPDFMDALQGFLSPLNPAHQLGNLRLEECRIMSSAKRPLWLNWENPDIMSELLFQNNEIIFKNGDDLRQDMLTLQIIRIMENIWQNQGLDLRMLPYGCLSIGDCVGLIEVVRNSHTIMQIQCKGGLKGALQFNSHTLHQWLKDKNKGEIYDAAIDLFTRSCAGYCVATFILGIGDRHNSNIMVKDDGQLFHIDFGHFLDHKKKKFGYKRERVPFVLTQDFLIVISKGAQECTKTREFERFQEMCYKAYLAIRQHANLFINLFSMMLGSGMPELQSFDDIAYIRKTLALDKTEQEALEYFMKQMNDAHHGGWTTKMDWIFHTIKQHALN
T1 sequence (P27986 whole entry partner, canonical isoform): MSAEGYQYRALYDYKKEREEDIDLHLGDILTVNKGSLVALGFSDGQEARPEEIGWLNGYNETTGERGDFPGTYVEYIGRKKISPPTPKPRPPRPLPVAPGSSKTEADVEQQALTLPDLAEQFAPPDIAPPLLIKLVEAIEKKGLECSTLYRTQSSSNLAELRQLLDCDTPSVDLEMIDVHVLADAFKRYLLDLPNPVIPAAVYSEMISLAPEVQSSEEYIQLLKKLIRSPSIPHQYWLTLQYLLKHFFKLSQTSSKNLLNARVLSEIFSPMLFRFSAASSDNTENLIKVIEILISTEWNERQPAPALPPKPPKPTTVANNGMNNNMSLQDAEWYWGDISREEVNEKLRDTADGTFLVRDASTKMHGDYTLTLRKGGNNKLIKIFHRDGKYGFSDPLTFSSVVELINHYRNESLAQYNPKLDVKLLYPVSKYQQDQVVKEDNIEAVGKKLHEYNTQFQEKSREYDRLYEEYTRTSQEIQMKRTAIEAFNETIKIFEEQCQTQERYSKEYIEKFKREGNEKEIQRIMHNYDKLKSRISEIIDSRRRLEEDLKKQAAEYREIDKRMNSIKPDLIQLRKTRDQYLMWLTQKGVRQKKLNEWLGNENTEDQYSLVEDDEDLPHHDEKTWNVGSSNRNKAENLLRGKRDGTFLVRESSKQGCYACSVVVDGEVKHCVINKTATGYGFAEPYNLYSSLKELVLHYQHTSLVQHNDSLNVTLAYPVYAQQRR
T2 sequence (P48736 whole entry, canonical isoform): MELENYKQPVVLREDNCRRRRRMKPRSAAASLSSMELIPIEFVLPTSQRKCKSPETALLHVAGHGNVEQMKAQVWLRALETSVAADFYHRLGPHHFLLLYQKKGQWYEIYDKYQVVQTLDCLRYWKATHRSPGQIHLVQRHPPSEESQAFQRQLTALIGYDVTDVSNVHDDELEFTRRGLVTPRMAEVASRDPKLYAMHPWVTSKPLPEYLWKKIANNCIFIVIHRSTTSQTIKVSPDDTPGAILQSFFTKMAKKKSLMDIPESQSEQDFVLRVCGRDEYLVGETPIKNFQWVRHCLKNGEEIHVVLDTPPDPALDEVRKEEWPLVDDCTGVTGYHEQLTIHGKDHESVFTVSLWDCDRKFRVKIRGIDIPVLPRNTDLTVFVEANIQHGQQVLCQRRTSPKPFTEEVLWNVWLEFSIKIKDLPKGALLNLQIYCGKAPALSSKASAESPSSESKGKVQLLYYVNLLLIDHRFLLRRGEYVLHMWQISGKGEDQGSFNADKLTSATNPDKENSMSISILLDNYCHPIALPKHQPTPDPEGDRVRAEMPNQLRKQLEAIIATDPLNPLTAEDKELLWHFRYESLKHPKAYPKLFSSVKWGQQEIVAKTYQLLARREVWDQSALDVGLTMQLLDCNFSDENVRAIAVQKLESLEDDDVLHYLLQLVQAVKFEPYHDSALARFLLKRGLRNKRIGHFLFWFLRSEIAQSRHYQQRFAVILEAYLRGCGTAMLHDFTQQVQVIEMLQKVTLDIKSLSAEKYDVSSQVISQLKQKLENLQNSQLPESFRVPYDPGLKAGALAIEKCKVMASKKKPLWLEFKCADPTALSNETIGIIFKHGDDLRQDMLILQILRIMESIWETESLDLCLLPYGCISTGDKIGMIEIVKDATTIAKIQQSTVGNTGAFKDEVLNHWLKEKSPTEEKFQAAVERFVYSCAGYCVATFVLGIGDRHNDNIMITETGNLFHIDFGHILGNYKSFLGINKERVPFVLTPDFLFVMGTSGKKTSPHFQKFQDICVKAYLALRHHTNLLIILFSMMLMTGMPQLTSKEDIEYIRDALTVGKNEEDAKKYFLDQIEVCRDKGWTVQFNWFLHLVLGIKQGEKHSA
T2 sequence (Q8WYR1 whole entry partner, canonical isoform): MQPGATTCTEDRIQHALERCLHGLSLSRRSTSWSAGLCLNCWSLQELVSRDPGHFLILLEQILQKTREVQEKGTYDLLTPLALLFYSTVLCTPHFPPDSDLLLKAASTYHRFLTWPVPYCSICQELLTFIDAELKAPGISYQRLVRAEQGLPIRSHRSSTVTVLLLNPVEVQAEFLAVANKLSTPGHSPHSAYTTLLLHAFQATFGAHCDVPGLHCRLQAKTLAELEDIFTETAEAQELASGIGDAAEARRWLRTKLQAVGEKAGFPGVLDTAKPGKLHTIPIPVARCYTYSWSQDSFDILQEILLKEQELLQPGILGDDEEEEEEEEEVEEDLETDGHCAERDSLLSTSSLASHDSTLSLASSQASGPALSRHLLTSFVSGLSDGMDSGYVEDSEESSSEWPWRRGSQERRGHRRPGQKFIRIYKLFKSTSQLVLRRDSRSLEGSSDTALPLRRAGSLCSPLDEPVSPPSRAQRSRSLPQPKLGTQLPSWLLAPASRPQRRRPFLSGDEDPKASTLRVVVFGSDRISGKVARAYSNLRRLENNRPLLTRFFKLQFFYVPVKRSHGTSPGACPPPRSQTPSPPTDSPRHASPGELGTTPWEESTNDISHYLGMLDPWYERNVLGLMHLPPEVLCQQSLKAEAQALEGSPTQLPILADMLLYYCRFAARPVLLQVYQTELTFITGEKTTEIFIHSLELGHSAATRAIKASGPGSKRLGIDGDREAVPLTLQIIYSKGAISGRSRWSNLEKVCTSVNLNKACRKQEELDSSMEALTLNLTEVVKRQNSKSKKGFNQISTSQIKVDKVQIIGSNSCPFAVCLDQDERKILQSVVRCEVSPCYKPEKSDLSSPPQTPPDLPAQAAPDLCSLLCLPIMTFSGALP

With `C/C(=N/N=C1/SCC(=O)N1C(=O)c1ccccc1)c1c(O)ccc2c(C)cc(=O)oc12` [VIIb] the IC50 (PI3K-α) was 3.7 ± 0.19 µM, the IC50 (PI3K-γ) was 34.7 ± 1.88 µM and the IC50 (Akt-1) was 2.93 ± 0.15 µM. For the same compound, the “DNA Content % Pre G1” value (MCF-7 cells [1]; control 1.55) was 35.25%, the “DNA Content % G2/M” value (MCF-7 cells [1]; control 9.71) was 5.59% and the “DNA Content % S” value (MCF-7 cells [1]; control 36.58) was 46.02%. The “DNA Content % G0/G1” value (MCF-7 cells [1]; control 53.71) was 48.39%, the “Apoptosis % Late (V+/PI+)” value (MCF-7 cells [2]; MCF-7, treated at IC50, 48 h, control 0.17) was 21.05% and the “Apoptosis % Early (V+/PI−)” value (MCF-7 cells [2]; MCF-7, treated at IC50, 48 h, control 0.48) was 2.51%. For the same compound, the Necrosis% (MCF-7 cells [2]; MCF-7, treated at IC50, 48 h, control 0.90) was 11.69%, the “Apoptosis % Total” value (MCF-7 cells [2]; MCF-7, treated at IC50, 48 h, control 1.55) was 35.25% and the “fold increase in early apoptotic cells” value (MCF-7 cells [2]; [3]) was 5 fold. For the same compound, the “fold increase in late apoptotic cells” value (MCF-7 cells [2]; [3]) was 100 fold, the “level of Cyclin D1” value (Cyclin D1, p-PI3K, p-Akt) was “effectively suppressed” and the “level of p-Akt” value (Cyclin D1, p-PI3K, p-Akt) was “effectively suppressed”. For the same compound, the “level of p-PI3K” value (Cyclin D1, p-PI3K, p-Akt) was “effectively suppressed”.
